The target of one experiment is mouse DGAT1 (Mus musculus (Mouse), UniProt Q9Z2A7). Put plainly: Radiometric DGAT1 assay, mouse liver microsomes. Particulars: mouse liver microsomes having mouse DGAT1 activity. It counts as biochemical. From the text: A second source of DGAT1 activity was human or mouse liver microsomes.
Another experiment addresses human DGAT1 (Homo sapiens (Human), UniProt O75907). Put plainly: biochemical.

Sequence of mouse DGAT1 (Q9Z2A7 whole entry): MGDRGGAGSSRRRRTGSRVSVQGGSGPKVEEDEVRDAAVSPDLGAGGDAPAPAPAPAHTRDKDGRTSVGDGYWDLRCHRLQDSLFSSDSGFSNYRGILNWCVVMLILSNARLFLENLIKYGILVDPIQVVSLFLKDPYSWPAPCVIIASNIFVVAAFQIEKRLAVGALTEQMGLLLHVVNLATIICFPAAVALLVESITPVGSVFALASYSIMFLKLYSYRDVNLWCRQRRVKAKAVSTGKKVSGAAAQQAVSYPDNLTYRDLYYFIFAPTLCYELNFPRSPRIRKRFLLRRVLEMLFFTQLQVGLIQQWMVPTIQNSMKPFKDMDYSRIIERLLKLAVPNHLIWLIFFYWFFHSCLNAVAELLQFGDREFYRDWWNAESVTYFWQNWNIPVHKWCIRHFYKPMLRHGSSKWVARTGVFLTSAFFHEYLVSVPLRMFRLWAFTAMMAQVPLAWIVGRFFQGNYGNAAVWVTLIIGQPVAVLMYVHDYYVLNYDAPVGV
Sequence of human DGAT1 (O75907 whole entry): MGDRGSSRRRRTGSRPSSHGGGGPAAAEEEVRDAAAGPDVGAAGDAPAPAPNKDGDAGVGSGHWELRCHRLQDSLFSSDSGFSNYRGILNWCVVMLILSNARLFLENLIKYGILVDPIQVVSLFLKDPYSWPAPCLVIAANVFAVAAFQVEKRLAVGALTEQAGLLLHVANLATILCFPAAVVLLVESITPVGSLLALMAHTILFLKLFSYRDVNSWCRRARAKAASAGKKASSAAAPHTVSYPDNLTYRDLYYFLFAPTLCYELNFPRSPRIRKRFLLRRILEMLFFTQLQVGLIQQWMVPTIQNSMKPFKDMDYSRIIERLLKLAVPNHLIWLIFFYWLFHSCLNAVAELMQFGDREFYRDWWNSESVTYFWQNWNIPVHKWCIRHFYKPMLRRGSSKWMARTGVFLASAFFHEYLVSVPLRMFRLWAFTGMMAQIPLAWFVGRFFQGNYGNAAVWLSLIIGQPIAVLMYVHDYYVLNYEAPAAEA
Description for human DGAT1: For this assay, a source of DGAT1 was needed. In that regard, a commercially available plasmid for expression of DGAT1 (e.g., pCMV6-recombinant human DGAT1 plasmid) was transfected for 24 hours in Hep3B cells. After transfection of the plasmid, human DGAT-1 expression was analyzed by Western blot or RT-PCR using whole cell extracts. […] Human and mouse DGAT activity were determined as follows.
The plates were sealed, incubated overnight and counted the next morning on a liquid scintillation counter and luminometer.
DGAT1 catalyzes the transfer of the radiolabelled decanoyl group onto the sn-3 position of didecanoyl glycerol. The resultant radiolabeled tridecanoyl glycerol (tricaprin) preferentially binds to the hydrophobic coating on the phospholipid-coated radiometric assay plate. The proximity of the radiolabeled product to the solid scintillant incorporated into the bottom of the radiometric assay plate induced for release from the scintillant, which was measured in the liquid scintillation counter and luminometer.
IC50 values of the compounds were determined from concentration-dependent inhibition curves by using commercially available software.

One may read the IC50 as the concentration at which inhibition is half-maximal. Higher therefore signals a need for much substance. For the compound `Cc1ccccc1CNC(=O)c1cn2cc(-c3ccc([C@H]4CC[C@H](CC(=O)O)CC4)cc3)ccc2n1` [Compound 37, 2-((1r,4r)-4-(4-(2-((2-Methylbenzyl)carbamoyl)imidazo[1,2-a]pyridin-6-yl)phenyl)cyclohexyl)acetic acid], the IC50 at mouse DGAT1 was below 50 nM; against human DGAT1, below 10 nM.
For `Cc1cccc(C)c1NC(=O)c1cn2cc(-c3ccc([C@H]4CC[C@H](CC(=O)O)CC4)cc3)ccc2n1` [Compound 38, 2-((1r,4r)-4-(4-(2-((2,6-Dimethylphenyl)carbamoyl)imidazo[1,2-a]pyridin-6-yl)phenyl)cyclohexyl)acetic acid] the same measures were below 1 nM and below 200 nM.
For the compound `O=C(O)C[C@H]1CC[C@H](c2ccc(-c3ccc4nc(C(=O)Nc5cc(F)ccc5F)cn4c3)cc2)CC1` [Compound 39, 2-((1r,4r)-4-(4-(2-((2,5-Difluorophenyl)carbamoyl)imidazo[1,2-a]pyridin-6-yl)phenyl)cyclohexyl)acetic acid], the figures for the IC50 against mouse DGAT1 and against human DGAT1 were below 1 nM and below 10 nM, respectively.
For `O=C(O)C[C@H]1CC[C@H](c2ccc(-c3ccc4nc(C(=O)Nc5cc(F)c(F)c(F)c5)cn4c3)cc2)CC1` [Compound 40, 2-((1r,4r)-4-(4-(2-((3,4,5-Trifluorophenyl)carbamoyl)imidazo[1,2-a]pyridin-6-yl)phenyl)cyclohexyl)acetic acid], the IC50 against mouse DGAT1 was below 50 nM; at human DGAT1, below 1 nM.
Take `COc1ccc(CNC(=O)c2cn3cc(-c4ccc([C@H]5CC[C@H](CC(=O)O)CC5)cc4)sc3n2)cc1` [Compound 57, 2-((1r,4r)-4-(4-(6-((4-Methoxybenzyl)carbamoyl)imidazo[2,1-b]thiazol-2-yl)phenyl)cyclo-hexyl)acetic acid]: the IC50 at mouse DGAT1 is below 150 nM; against human DGAT1, below 10 nM.
For `O=C(O)C[C@H]1CC[C@H](c2ccc(-c3cn4cc(C(=O)NCc5ccc6c(c5)OCO6)nc4s3)cc2)CC1` [Compound 58, 2-((1r,4r)-4-(4-(6-((Benzo[d][1,3]dioxol-5-ylmethyl)carbamoyl)imidazo[2,1-b]thiazol-2-yl)-phenyl)cyclohexyl)acetic acid], the IC50 was below 325 nM against mouse DGAT1 and below 100 nM on human DGAT1.
For `O=C(O)C[C@H]1CC[C@H](c2ccc(-c3cn4cc(C(=O)NCc5ccc(F)c(OC(F)(F)F)c5)nc4s3)cc2)CC1` [Compound 59, 2-((1r,4r)-4-(4-(6-((4-Fluoro-3-(trifluoromethoxy)benzyl)carbamoyl)imidazo[2,1-b]thiazol-2-yl)phenyl)cyclohexyl)acetic acid], in that order: below 25 nM and below 25 nM.

Source of the values: US9271969B2, “Compounds as inhibitors of diacylglycerol O-acyltransferase type 1 enzyme” (KAINOS MEDICINE, INC., priority 2012, dated 2016).
